Assay results as given in ChEMBL document CHEMBL1811854, “Phenolic compounds from the roots of Jordanian viper's grass, Scorzonera judaica” (J Nat Prod, 2011).

Assays:
Type in all cases: functional, cell-based
[1] = tested on: Jurkat; assay: Cytotoxicity against human Jurkat cells by MTT assay
[2] = tested on: MCF7; assay: Cytotoxicity against human MCF7 cells by MTT assay
[3] = tested on: HeLa; assay: Cytotoxicity against human HeLa cells by MTT assay

Measured: IC50

O=C(Cc1cccc(O)c1C(=O)O)c1ccc(O)c(O)c1
> 100 µM: all assays above

O=C(O)c1c(O)cccc1/C=C/c1ccc(O[C@@H]2O[C@H](CO)[C@@H](O)[C@H](O)[C@H]2O)cc1
> 100 µM: all assays above

O=C(Cc1cccc(O)c1C(=O)O)c1ccc(O)cc1
> 100 µM: all assays above

O=C1OC(c2ccc(O)c(O)c2)=C/C1=C/c1ccc(O)c(O)c1
> 100 µM: all assays above

COc1cc([C@H]2O[C@H](O[C@@H]3O[C@H](CO)[C@@H](O)[C@H](O)[C@H]3O)[C@H]3[C@H]2CO[C@H]3c2ccc(O)c(OC)c2)ccc1O
> 100 µM: all assays above

COc1cc(C(=O)Cc2cccc(O)c2C(=O)O)cc(O)c1O
> 100 µM: all assays above

O=C1O/C(=C\c2ccc(O)c(O)c2)c2cccc(O[C@@H]3O[C@H](CO)[C@@H](O)[C@H](O)[C@H]3O)c21
> 100 µM: all assays above

O=C1OC(c2ccc(O)c(O)c2)C/C1=C\c1ccc(O)c(O)c1 (configuration not stated)
> 100 µM: all assays above

C[C@@H]1O[C@@H](O[C@@H]2[C@@H](O)[C@H](Oc3ccc([C@@H]4Cc5cccc(O)c5C(=O)O4)cc3)O[C@H](CO)[C@H]2O)[C@H](O)[C@H](O)[C@H]1O
> 100 µM: all assays above
